Source: patent US20020026053A1, “Novel 3-(substituted) -2- indolinones compounds and use thereof as inhibitors of protein kinase activity” (priority 1997, published 2002)
Read-outs that look alike come from different tables or passages of the source.

Columns and labels:
[1] = tested on: PDGF-R; test: PDGF-R Assay (cellular ELISA, U1242 cells); type: cell-based; design: concentration or dose not given beside the values
Summary of the method: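 Cellular ELISA for receptor autophosphorylation: after 2 hr test-compound treatment of serum-free U1242 cells at 37°C, ligand is added for 5–10 min, cells are lysed (HNTG) and receptor captured by specific antibody. Anti-phosphotyrosine plus secondary antibody with ABTS colour read at 410/630 nm, compared with compound-free control cells.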

[2] = target: T1, EGFR (Homo sapiens, UniProt P00533); test: Biochemical EGFR Assay; design: concentration or dose not given beside the values
T1 construct: endogenous in cells; host or cells: A431 cells (lysate, captured with SUMO1 anti-EGFR antibody)
Summary of the method: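 Readout is ABTS absorbance at 410 nm after anti-phosphotyrosine and HRP-antibody detection of EGFR autophosphorylation. The kinase was immunocaptured from A431 lysate, exposed 30 min to test compound diluted 1:10 in TBS, then phosphorylated for 5 min with ATP/MnCl2 before an EDTA stop.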

T1 sequence (P00533 25-1210): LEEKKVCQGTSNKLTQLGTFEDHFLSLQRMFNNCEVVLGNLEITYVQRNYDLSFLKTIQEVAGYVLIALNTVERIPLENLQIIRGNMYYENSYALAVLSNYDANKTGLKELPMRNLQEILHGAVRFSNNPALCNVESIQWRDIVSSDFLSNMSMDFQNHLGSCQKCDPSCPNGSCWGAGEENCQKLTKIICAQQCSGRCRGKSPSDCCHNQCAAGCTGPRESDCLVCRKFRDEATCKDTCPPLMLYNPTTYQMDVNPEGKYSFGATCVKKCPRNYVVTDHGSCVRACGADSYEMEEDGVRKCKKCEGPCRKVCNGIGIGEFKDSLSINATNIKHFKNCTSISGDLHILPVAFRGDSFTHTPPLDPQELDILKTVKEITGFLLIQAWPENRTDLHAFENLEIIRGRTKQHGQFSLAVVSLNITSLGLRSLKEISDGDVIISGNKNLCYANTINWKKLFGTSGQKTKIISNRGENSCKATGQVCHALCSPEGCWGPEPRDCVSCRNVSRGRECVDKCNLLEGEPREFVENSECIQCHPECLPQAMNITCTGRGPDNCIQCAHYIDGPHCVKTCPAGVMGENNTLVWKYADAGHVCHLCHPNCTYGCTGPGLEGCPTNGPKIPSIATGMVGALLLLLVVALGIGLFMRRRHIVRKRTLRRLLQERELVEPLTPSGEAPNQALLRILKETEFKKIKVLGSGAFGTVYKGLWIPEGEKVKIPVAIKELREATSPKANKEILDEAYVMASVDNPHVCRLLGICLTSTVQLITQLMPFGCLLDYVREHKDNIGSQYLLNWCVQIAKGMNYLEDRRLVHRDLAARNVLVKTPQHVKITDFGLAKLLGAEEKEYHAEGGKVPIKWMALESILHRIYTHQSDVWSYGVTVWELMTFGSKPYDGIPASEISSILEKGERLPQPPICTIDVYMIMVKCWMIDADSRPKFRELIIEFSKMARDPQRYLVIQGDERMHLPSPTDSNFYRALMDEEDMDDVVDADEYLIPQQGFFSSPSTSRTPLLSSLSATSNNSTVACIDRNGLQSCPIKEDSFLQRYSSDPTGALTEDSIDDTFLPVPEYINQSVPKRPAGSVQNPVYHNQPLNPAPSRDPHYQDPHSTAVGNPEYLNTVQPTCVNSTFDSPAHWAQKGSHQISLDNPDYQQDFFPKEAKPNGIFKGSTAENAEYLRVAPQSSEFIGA

Compound	PDGF Kinase % Inhibition (P.119) [1]	Biochem EGFR % Inhibition (P.167) [2]	PDGF Kinase % Inhibition (P.119) ([1]; protocol P.119)	Biochem EGFR % Inhibition (P.167) ([2]; protocol P.167)
Cc1c(Br)cc(Br)c2c1C(=Cc1cccc(Br)c1)C(=O)N2 [10723/H10]	−22.3%	−38.1%	–	–
Cc1c(Br)cc(Br)c2c1C(=Cc1cccc(Cl)c1)C(=O)N2 [10736/H06]	–	–	9.3%	12.6%
Cc1cc(C=C2C(=O)Nc3c(Br)cc(Br)c(C)c32)[nH]n1 [10725/H05]	14.6%	−30.2%	–	–
Cc1c(Br)cc(Br)c2c1C(=Cc1c(O)cc(O)cc1O)C(=O)N2 [10722/H03]	26.6%	27.8%	–	–
Cc1c(Br)cc(Br)c2c1C(=Cc1ncc[nH]1)C(=O)N2 [10720/H11]	–	−19.3%	–	–
Cc1c(Br)cc(Br)c2c1C(=Cc1ccc(N(C)C)c3ccccc13)C(=O)N2 [10724/H02]	2.2%	17.6%	–	–
Cc1c(Br)cc(Br)c2c1C(=Cc1cc(Br)c(O)c(C(C)(C)C)c1)C(=O)N2 [10721/H10]	–	−3.9%	–	–
CCc1ccc(C=C2C(=O)Nc3ccc(CCCl)cc32)cc1 [10736/G09]	–	–	−3.5%	12.4%
Cc1c(Br)cc(Br)c2c1C(=Cc1ccc(Cl)cc1)C(=O)N2 [10736/H02]	–	–	−6.1%	−32.0%
COC(=O)Cc1c(Cl)[nH]c(C=C2C(=O)Nc3c(Br)cc(Br)c(C)c32)c1C(=O)OC [10725/H09]	9.3%	−28.4%	–	–
Cc1c(Br)cc(Br)c2c1C(=Cc1cc(O)c(O)c(Br)c1)C(=O)N2 [10723/H04]	53.3%	7.1%	–	–
Cc1c(Br)cc(Br)c2c1C(=Cc1ccc(O)cc1O)C(=O)N2 [10723/H08]	4.1%	69.9%	–	–
Cc1c(Br)cc(Br)c2c1C(=Cc1nc3ccccc3n1C)C(=O)N2 [10721/H02]	–	20.1%	–	–
Cc1c(Br)cc(Br)c2c1C(=Cc1sc3scc(C)c3c1C)C(=O)N2 [10724/H11]	−31.2%	−12.8%	–	–
Cc1c(Br)cc(Br)c2c1C(=Cc1ccccc1O)C(=O)N2 [10720/H05]	–	−29.0%	–	–
Cc1c(Br)cc(Br)c2c1C(=Cc1ccc(O)c(C(C)(C)C)c1)C(=O)N2 [10721/H09]	–	−10.4%	–	–
COc1ccc(C=C2C(=O)Nc3c(Br)cc(Br)c(C)c32)cc1OC [10720/H04]	–	−49.6%	–	–
Cc1cc(C=C2C(=O)Nc3c(Br)cc(Br)c(C)c32)sc1C [10721/H04]	–	−8.5%	–	–
Cc1c(Br)cc(Br)c2c1C(=Cc1ccc(F)cc1F)C(=O)N2 [10722/H06]	18.6%	−2.0%	–	–
Cc1cc(C=C2C(=O)Nc3c(Br)cc(Br)c(C)c32)cc(C)c1O [10722/H07]	−16.9%	−24.8%	–	–
Cc1c(Br)cc(Br)c2c1C(=Cc1ccc(Cl)s1)C(=O)N2 [10721/H07]	–	−20.5%	–	–

Compound	PDGF Kinase % Inhibition (P.119) [1]	Biochem EGFR % Inhibition (P.167) [2]	PDGF Kinase % Inhibition (P.119) ([1]; protocol P.119)	Biochem EGFR % Inhibition (P.167) ([2]; protocol P.167)
Cc1c(Br)cc(Br)c2c1C(=Cc1cc(C(C)(C)C)cc(C(C)(C)C)c1O)C(=O)N2 [10723/H11]	29.7%	−20.7%	–	–
Cc1c(Br)cc(Br)c2c1C(=Cc1ccc(O)c(O)c1O)C(=O)N2 [10723/H02]	20.7%	72.8%	–	–
CCOc1ccccc1C=C1C(=O)Nc2c(Br)cc(Br)c(C)c21 [10717/H02]	–	3.5%	–	–
Cc1cccc(C=C2C(=O)Nc3ccc(CCCl)cc32)c1 [10736/G04]	−8.3%	−35.0%	–	–
O=C1Nc2ccc(CCCl)cc2C1=Cc1ccccc1F [10736/G08]	–	–	−9.2%	−9.2%
Cc1ccc(C=C2C(=O)Nc3c(Br)cc(Br)c(C)c32)cc1 [10736/H05]	–	–	−10.0%	−28.9%
COc1cc(O)c(C=C2C(=O)Nc3c(Br)cc(Br)c(C)c32)c(OC)c1 [10724/H08]	−9.0%	−19.7%	–	–
Cc1c(Br)cc(Br)c2c1C(=Cc1csc([N+](=O)[O-])c1)C(=O)N2 [10722/H09]	17.5%	−7.4%	–	–
CCOC(=O)c1[nH]c(C=C2C(=O)Nc3c(Br)cc(Br)c(C)c32)c(C(=O)OC)c1C [10726/H03]	−17.8%	14.0%	–	–
Cc1c(Br)cc(Br)c2c1C(=Cc1cc3c4c(c1O)CCCN4CCC3)C(=O)N2 [10724/H05]	−19.4%	−1.3%	–	–
O=C1Nc2ccc(CCCl)cc2C1=Cc1cccc(F)c1 [10736/G07]	–	–	−14.8%	−74.8%
COc1ccc(Br)c(C=C2C(=O)Nc3c(Br)cc(Br)c(C)c32)c1O [10725/H03]	−12.8%	−16.5%	–	–
Cc1c(Br)cc(Br)c2c1C(=Cc1ccc(N3CCOCC3)cc1)C(=O)N2 [10725/H08]	13.6%	−3.7%	–	–
Cc1c(Br)cc(Br)c2c1C(=Cc1cc3ccccc3o1)C(=O)N2 [10724/H07]	−39.6%	−19.3%	–	–
O=C1Nc2ccc(CCCl)cc2C1=Cc1ccccc1Cl [10736/G11]	–	–	−1.7%	−6.4%
Cc1c(Br)cc(Br)c2c1C(=Cc1ccc(N3CCN(C=O)CC3)cc1)C(=O)N2 [10725/H07]	2.6%	−13.3%	–	–
COc1ccc(O)c(C=C2C(=O)Nc3c(Br)cc(Br)c(C)c32)c1 [10720/H10]	–	−62.8%	–	–
COc1cccc(C=C2C(=O)Nc3c(Br)cc(Br)c(C)c32)c1O [10723/H03]	−30.6%	6.3%	–	–
Cc1c(Br)cc(Br)c2c1C(=Cc1cc(C(C)C)c(O)c(C(C)C)c1)C(=O)N2 [10724/H06]	−20.8%	−8.2%	–	–
Cc1c(Br)cc(Br)c2c1C(=Cc1cc([N+](=O)[O-])c(O)c(C(C)(C)C)c1)C(=O)N2 [10722/H02]	19.2%	24.8%	–	–
Cc1cccc(C=C2C(=O)Nc3c(Br)cc(Br)c(C)c32)c1 [10736/H04]	–	–	−10.9%	−4.3%

Compound	PDGF Kinase % Inhibition (P.119) [1]	Biochem EGFR % Inhibition (P.167) [2]	PDGF Kinase % Inhibition (P.119) ([1]; protocol P.119)	Biochem EGFR % Inhibition (P.167) ([2]; protocol P.167)
Cc1c(Br)cc(Br)c2c1C(=Cc1ccc(O)c([N+](=O)[O-])c1)C(=O)N2 [10724/H03]	−7.6%	0.3%	–	–
Cc1cc(O)cc(O)c1C=C1C(=O)Nc2c(Br)cc(Br)c(C)c21 [10720/H08]	–	−55.8%	–	–
COc1cccc(C=C2C(=O)Nc3ccc(CCCl)cc32)c1 [10736/G10]	–	–	−7.4%	−4.5%
CCCCN(CCCC)c1ccc(C=C2C(=O)Nc3c(Br)cc(Br)c(C)c32)cc1 [10722/H10]	7.2%	−11.2%	–	–
COc1cccc(C=C2C(=O)Nc3ccc(S(=O)(=O)N4CCOCC4)cc32)c1 [10736/F10]	11.0%	−0.7%	–	–
Cc1ccc(C=C2C(=O)Nc3c(Br)cc(Br)c(C)c32)o1 [10725/H04]	−4.1%	17.2%	–	–
Cc1c(Br)cc(Br)c2c1C(=Cc1cc([N+](=O)[O-])cc(CCl)c1O)C(=O)N2 [10721/H06]	–	43.3%	–	–
Cc1c(Br)cc(Br)c2c1C(=Cc1cc3c([nH]1)CCCC3)C(=O)N2 [10721/H05]	–	−12.4%	–	–
Cc1c(Br)cc(Br)c2c1C(=Cc1ccccc1C(F)(F)F)C(=O)N2 [10736/H03]	–	–	2.2%	−1.4%
Cc1cc(C)c(C=C2C(=O)Nc3c(Br)cc(Br)c(C)c32)[nH]1 [10721/H08]	–	−6.8%	–	–
Cc1c(Br)cc(Br)c2c1C(=Cc1cc(C(C)(C)C)c(O)c(C(C)(C)C)c1)C(=O)N2 [10721/H11]	–	−21.3%	–	–
Cc1c(Br)cc(Br)c2c1C(=Cc1nn(C)cc1Cl)C(=O)N2 [10721/H03]	–	29.2%	–	–
CCOc1cc(C=C2C(=O)Nc3c(Br)cc(Br)c(C)c32)ccc1O [10720/H09]	–	−66.8%	–	–
COc1cc(C)cc(O)c1C=C1C(=O)Nc2c(Br)cc(Br)c(C)c21 [10725/H06]	6.9%	0.3%	–	–
Cc1c(Br)cc(Br)c2c1C(=Cc1cccn1C)C(=O)N2 [10717/H04]	–	6.8%	–	–
Cc1c(Br)cc(Br)c2c1C(=Cc1ccc(C(F)(F)F)cc1)C(=O)N2 [10722/H11]	15.7%	−16.3%	–	–
Cc1cc(C=C2C(=O)Nc3c(Br)cc(Br)c(C)c32)ccc1O [10723/H06]	−17.4%	−11.8%	–	–
Cc1c(Br)cc(Br)c2c1C(=Cc1ccccc1)C(=O)N2 [10720/H06]	–	−52.4%	–	–
Cc1c(Br)cc(Br)c2c1C(=Cc1cccs1)C(=O)N2 [10717/H03]	–	25.7%	–	–
CSc1ccc(C=C2C(=O)Nc3c(Br)cc(Br)c(C)c32)s1 [10720/H07]	–	−49.8%	–	–
